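Where inhibition never reached the appropriate level, the endpoint shown equals the highest concentration tested. Otherwise, values were interpolated linearly from a five-concentration, 48-hour dose response in 96-well plates. GI50 marks 50% less growth.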 Calls of active or inactive are those of the source. Rule as the data show it: active = GI50 up to about 1.1 µM and inactive = higher.
Assays:
Experiment in all cases: NCI tumour cell line growth inhibition, 48 h
[1] = tested on: KM12
[2] = tested on: HT-29
[3] = tested on: HOP-92
[4] = tested on: RXF 393
[5] = tested on: K562
[6] = tested on: SR
[7] = tested on: XF498
[8] = tested on: TK-10
[9] = tested on: CAKI-1
[10] = tested on: SK-OV-3
[11] = tested on: NCI/ADR-RES
[12] = tested on: MCF7

Measured: GI50

CC(=O)c1cccc(NC(=O)C(=O)C(C(=O)c2ccccc2F)C2OC(=O)c3ccccc32)c1 (centres undefined)
inactive: [1] 39.7 µM | [2] 35.9 µM | [3] > 100 µM | [4] 28.1 µM | [5] 32.1 µM | [6] 9.2 µM | [7] 35.6 µM | [8] > 100 µM | [9] 65.3 µM | [10] 35.4 µM

C/C(=C/c1c(C)[nH]c(=O)[nH]c1=O)C(=O)O
inactive: [11] > 1370 µM | [1] > 1370 µM | [2] > 1370 µM | [4] > 1370 µM | [5] > 1370 µM | [12] > 1370 µM | [7] > 1370 µM | [9] > 1370 µM | [10] > 1370 µM

COC(=O)C(=O)C(C(=O)OC)C(=O)C(=O)Nc1cc(Cl)c(Cl)cc1Cl (centres undefined)
inactive: [1] > 100 µM | [2] 49.8 µM | [3] > 100 µM | [4] > 100 µM | [5] > 100 µM | [6] 24.8 µM | [7] > 100 µM | [8] > 100 µM | [9] > 100 µM | [10] > 100 µM

CCOC(=O)C1C(=O)CN2CCc3c([nH]c4ccccc34)C12C(=O)OCC (centres undefined)
inactive: [1] > 100 µM | [2] > 100 µM | [3] > 100 µM | [4] > 100 µM | [5] > 100 µM | [6] > 100 µM | [7] > 100 µM | [8] > 100 µM | [9] > 100 µM | [10] > 100 µM

C=C(Nc1ccc(OC)cc1OC)C(=O)Cc1cccc[n+]1[O-]
inactive: [1] > 100 µM | [2] > 100 µM | [3] > 100 µM | [4] > 100 µM | [5] > 100 µM | [6] > 100 µM | [7] > 100 µM | [8] > 100 µM | [9] > 100 µM | [10] > 100 µM

C[C@@H]1O[C@]2(O)[C@@H]3CCCN3S(=O)(=O)CCN2C1=O
inactive: [1] > 100 µM | [2] > 100 µM | [3] > 100 µM | [4] > 100 µM | [5] > 100 µM | [6] > 100 µM | [7] 8.41 µM | [8] > 100 µM | [9] > 100 µM | [10] > 100 µM
